# According to US20060069132A1, “Azolecarboxamide herbicides” (priority 2004, published 2006):
# What was measured:
# corn = assay: Test B pre-/postemergence herbicide test; assay type: in vivo, Zea mays; details: for Corn plant response rating: postemergence
# Summary of the method: (§1)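 Flooded paddy rice and barnyardgrass were treated at the 2-leaf stage; upland plantings received compound either on sown seed or on 1- to 4-leaf seedlings. All were kept 13–15 days in a greenhouse and scored visually, 0–100, relative to untreated plants.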
# rice [1] = assay: Test C flooded paddy test; assay type: in vivo, Oryza sativa; details: for Plant response rating, Rice: visual rating after 12 to 14 days
# Summary of the method: (§2)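 Injury scored visually against controls on a 0 (no effect) to 100 (complete control) scale, 12 to 14 days after treatment in greenhouse. Flooded paddy plants treated at 2-leaf stage; postemergence plants at 1- to 4-leaf stage, 2 to 18 cm tall.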
# velvetleaf = assay: Test B pre-/postemergence herbicide test; assay type: in vivo, Abutilon theophrasti; details: for Velvetleaf plant response rating: postemergence
# Summary of the method: as §1
# cocklebur = assay: Test B pre-/postemergence herbicide test; assay type: in vivo, Xanthium strumarium; details: for Cocklebur plant response rating: postemergence
# Summary of the method: (§3)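 Response was scored visually 13 to 15 days after treatment against untreated greenhouse controls, 0 meaning no effect and 100 complete control. Formulations (solvent mixture plus surfactant) went onto soil after planting, onto foliage of 1- to 4-leaf plants, and onto 2-leaf plants in a flooded paddy set including rice and barnyardgrass.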
# barnyardgrass [2] = assay: Test C flooded paddy test; assay type: in vivo, Echinochloa crus-galli; details: for Plant response rating, Barnyardgrass: visual rating after 12 to 14 days
# Summary of the method: as §2
# wild oat = assay: Test B postemergence herbicide test; assay type: in vivo, Avena fatua; details: postemergence
# Summary of the method: (§4)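 Visual ratings, 0 (no effect) to 100 (complete control), made versus controls after 13–15 d greenhouse. Paddy plants treated at 2-leaf stage; postemergence plants at 1- to 4-leaf stage, 2–18 cm tall.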
# ducksalad [3] = assay: Test C flooded paddy test; assay type: in vivo, Heteranthera limosa; details: for Plant response rating, Ducksalad: visual rating after 12 to 14 days
# morningglory = assay: Test B pre-/postemergence herbicide test; assay type: in vivo, Ipomoea coccinea; details: for Morningglory plant response rating: postemergence
# Summary of the method: as §3
# giant foxtail = assay: Test B pre-/postemergence herbicide test; assay type: in vivo, Setaria faberi; details: for Foxtail, Giant plant response rating: postemergence
# Summary of the method: as §1
# blackgrass = assay: Test B postemergence herbicide test; assay type: in vivo, Alopecurus myosuroides; details: postemergence
# Summary of the method: (§5)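 Visual control ratings, 0–100 versus untreated controls, taken after 13 to 15 days in the greenhouse. Blackgrass received a postemergence spray at the 1- to 4-leaf stage (2–18 cm); ducksalad, umbrella sedge and barnyardgrass were flooded-paddy treated at 2 leaves.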
# ducksalad [4] = assay: Test B flooded paddy test; assay type: in vivo, Heteranthera limosa; details: 1000 g ai/ha, visual rating, scale 0 to 100 (0 no effect, 100 complete control), 13 to 15 days
# Summary of the method: as §5
# rice [5] = assay: Test B pre-/postemergence herbicide test; assay type: in vivo, Oryza sativa; details: preemergence
# Summary of the method: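 Evaluation is visual, comparing treated with control plants on a scale where 0 means no effect and 100 means full control. Treatments were preemergence, or postemergence on seedlings 2–18 cm tall, and held 13–15 days in the greenhouse.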
# pigweed = assay: Test B pre-/postemergence herbicide test; assay type: in vivo, Amaranthus retroflexus; details: for Pigweed plant response rating: postemergence
# Summary of the method: as §1
# barnyardgrass [6] = assay: Test B flooded paddy test; assay type: in vivo, Echinochloa crus-galli; details: 1000 g ai/ha, visual rating, scale 0 to 100 (0 no effect, 100 complete control), 13 to 15 days
# Summary of the method: as §5
# barnyardgrass [7] = assay: Test B pre-/postemergence herbicide test; assay type: in vivo, Echinochloa crus-galli; details: for Barnyardgrass plant response rating: postemergence
# Summary of the method: as §3
# wheat = assay: Test B postemergence herbicide test; assay type: in vivo, Triticum aestivum; set-up: key to Wheat plant response rating: 0 = no effect, 100 = complete control; details: postemergence
# Summary of the method: as §4
# rice [8] = assay: Test B flooded paddy test; assay type: in vivo, Oryza sativa; details: 1000 g ai/ha, visual rating, scale 0 to 100 (0 no effect, 100 complete control), 13 to 15 days
# Summary of the method: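 After treating 2-leaf paddy plants or 2–18 cm postemergence plants (1 to 4 leaves) with formulated chemical, researchers kept them in a greenhouse for 13–15 days. Effects were judged visually versus controls: 0 indicates none, 100 total control.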
# lambsquarters = assay: Test B pre-/postemergence herbicide test; assay type: in vivo, Chenopodium album; details: for Lambsquarters plant response rating: postemergence
# Summary of the method: as §1
# large crabgrass = assay: Test B pre-/postemergence herbicide test; assay type: in vivo, Digitaria sanguinalis; details: for Crabgrass, Large plant response rating: postemergence
# Summary of the method: as §1
# Surinam grass = assay: Test B pre-/postemergence herbicide test; assay type: in vivo, Urochloa decumbens; details: for Surinam Grass plant response rating: postemergence
# Summary of the method: as §1
# [9] = system: smallflower umbrella sedge; assay: Test C flooded paddy test; assay type: in vivo, Cyperus difformis; details: for Plant response rating, Sedge, Umbrella: visual rating after 12 to 14 days
# [10] = system: small flower umbrella sedge; assay: Test B flooded paddy test; assay type: in vivo, Cyperus difformis; details: 1000 g ai/ha, visual rating, scale 0 to 100 (0 no effect, 100 complete control), 13 to 15 days
# Summary of the method: as §5
# [11] = 125 g ai/ha, visual rating, scale 0 (no effect) to 100 (complete control)
# [12] = preemergence, 125 g ai/ha, 0 to 100 scale, 0 is no effect, 100 is complete control
# [13] = 62 g ai/ha, scale 0 to 100 (0 no effect, 100 complete control)
# [14] = 125 g ai/ha, scale of 0 to 100, 0 is no effect, 100 is complete control
# [15] = 250 g ai/ha, scale 0 to 100 (0 no effect, 100 complete control)
# [16] = 500 g ai/ha, scale 0 to 100 (0 no effect, 100 complete control)
# [17] = 125 g ai/ha, 0 = no effect, 100 = complete control, preemergence
# [18] = 500 g ai/ha, visual rating 0-100, 0 no effect, 100 complete control, preemergence
# [19] = 500 g ai/ha, visual rating, scale 0 (no effect) to 100 (complete control)
# [20] = 125 g ai/ha, scale 0 to 100 (0 no effect, 100 complete control)
# [21] = 250 g ai/ha, scale of 0 to 100, 0 is no effect, 100 is complete control
compound,measurement,setting,value
CCn1nc(C(C)(C)C)cc1C(=O)Nc1cccc(C(=O)N(C)C)c1 [Compound 49],Corn plant response rating,corn; [11],20
same,Corn plant response rating,"corn; 31 g ai/ha, scale 0 to 100",10
same,"Plant response rating, Corn",corn; [12],0
same,Rice plant response rating,rice [1]; [13],15
same,Rice plant response rating,rice [1]; [14],25
same,"Plant response rating, Rice",rice [1]; [15],70
same,"Plant response rating, Rice",rice [1]; [16],90
same,Velvetleaf plant response rating,velvetleaf; [11],30
same,Velvetleaf plant response rating,"velvetleaf; 31 g ai/ha, scale 0 to 100",10
same,"Plant response rating, Velvetleaf",velvetleaf; [12],0
same,Cocklebur plant response rating,cocklebur; [11],20
same,Cocklebur plant response rating,"cocklebur; 31 g ai/ha, scale 0 to 100",10
same,"Plant response rating, Cocklebur",cocklebur; [12],0
same,Barnyardgrass plant response rating,barnyardgrass [2]; [13],45
same,Barnyardgrass plant response rating,barnyardgrass [2]; [14],60
same,"Plant response rating, Barnyardgrass",barnyardgrass [2]; [15],70
same,"Plant response rating, Barnyardgrass",barnyardgrass [2]; [16],80
same,"Oat, Wild plant response rating",wild oat; [11],10
same,"Oat, Wild plant response rating","wild oat; 31 g ai/ha, scale 0 to 100",0
same,Ducksalad plant response rating,ducksalad [3]; [13],0
same,Ducksalad plant response rating,ducksalad [3]; [14],50
same,"Plant response rating, Ducksalad",ducksalad [3]; [15],80
same,"Plant response rating, Ducksalad",ducksalad [3]; [16],80
same,Morningglory plant response rating,morningglory; [11],0
same,Morningglory plant response rating,"morningglory; 31 g ai/ha, scale 0 to 100",0
same,"Plant response rating, Morningglory",morningglory; [12],0
same,"Foxtail, Giant plant response rating",giant foxtail; [11],10
same,"Foxtail, Giant plant response rating","giant foxtail; 31 g ai/ha, scale 0 to 100",0
same,"Plant response rating, Foxtail, Giant",giant foxtail; [12],0
same,Blackgrass plant response rating,blackgrass; [11],0
same,Blackgrass plant response rating,"blackgrass; 31 g ai/ha, scale 0 to 100",0
same,Ducksalad plant response rating,ducksalad [4],80
same,"Plant response rating, Rice","rice [5]; 125 g ai/ha, 0 to 100 scale, 0 is no effect, 100 is complete control",40
same,Pigweed plant response rating,pigweed; [11],30
same,Pigweed plant response rating,"pigweed; 31 g ai/ha, scale 0 to 100",10
same,"Plant response rating, Pigweed",pigweed; [12],90
same,Barnyardgrass plant response rating,barnyardgrass [6],70
same,Barnyardgrass plant response rating,barnyardgrass [7]; [11],30
same,Barnyardgrass plant response rating,"barnyardgrass [7]; 31 g ai/ha, scale 0 to 100",10
same,"Plant response rating, Barnyardgrass",barnyardgrass [7]; [12],30
same,Wheat plant response rating,wheat; [11],0
same,Wheat plant response rating,"wheat; 31 g ai/ha, scale 0 to 100",0
same,Rice plant response rating,rice [8],30
same,Lambsquarters plant response rating,lambsquarters; [11],50
same,Lambsquarters plant response rating,"lambsquarters; 31 g ai/ha, scale 0 to 100",20
same,"Plant response rating, Lambsquarters",lambsquarters; [12],70
same,"Crabgrass, Large plant response rating",large crabgrass; [11],10
same,"Crabgrass, Large plant response rating","large crabgrass; 31 g ai/ha, scale 0 to 100",10
same,"Plant response rating, Crabgrass, Large",large crabgrass; [12],20
same,Surinam Grass plant response rating,Surinam grass; [11],10
same,Surinam Grass plant response rating,"Surinam grass; 31 g ai/ha, scale 0 to 100",10
same,"Plant response rating, Surinam Grass",Surinam grass; [12],10
same,"Sedge, Umbrella plant response rating",[9]; [13],45
same,"Sedge, Umbrella plant response rating",[9]; [14],45
same,"Plant response rating, Sedge, Umbrella",[9]; [15],80
same,"Plant response rating, Sedge, Umbrella",[9]; [16],80
same,"Sedge, Umbrella plant response rating",[10],80
CCc1nn(C(C)(C)C)cc1C(=O)Nc1cccc(C(C)=O)c1 [Compound 187],Corn plant response rating (0 to 100 scale),corn; [17],20
same,"Plant response rating, Corn",corn; [18],60
same,Corn plant response rating,corn; [11],0
same,Corn plant response rating,corn; [19],20
same,Rice plant response rating,rice [1]; [13],15
same,Rice plant response rating,rice [1]; [20],30
same,Rice plant response rating,rice [1]; [21],50
same,"Plant response rating, Rice",rice [1]; [16],65
same,Velvetleaf plant response rating (0 to 100 scale),velvetleaf; [17],10
same,"Plant response rating, Velvetleaf",velvetleaf; [18],20
same,Velvetleaf plant response rating,velvetleaf; [11],0
same,Velvetleaf plant response rating,velvetleaf; [19],10
same,Cocklebur plant response rating (0 to 100 scale),cocklebur; [17],0
same,"Plant response rating, Cocklebur",cocklebur; [18],0
same,Cocklebur plant response rating,cocklebur; [11],30
same,Cocklebur plant response rating,cocklebur; [19],70
same,Barnyardgrass plant response rating,barnyardgrass [2]; [13],0
same,Barnyardgrass plant response rating,barnyardgrass [2]; [14],25
same,Barnyardgrass plant response rating,barnyardgrass [2]; [21],60
same,"Plant response rating, Barnyardgrass",barnyardgrass [2]; [16],75
same,"Oat, Wild plant response rating",wild oat; [11],10
same,"Oat, Wild plant response rating",wild oat; [19],20
same,Ducksalad plant response rating,ducksalad [3]; [13],20
same,Ducksalad plant response rating,ducksalad [3]; [20],40
same,Ducksalad plant response rating,ducksalad [3]; [21],85
same,"Plant response rating, Ducksalad",ducksalad [3]; [16],90
same,Morningglory plant response rating (0 to 100 scale),morningglory; [17],20
same,"Plant response rating, Morningglory",morningglory; [18],30
same,Morningglory plant response rating,morningglory; [11],20
same,Morningglory plant response rating,morningglory; [19],20
same,"Foxtail, Giant plant response rating (0 to 100 scale)",giant foxtail; [17],10
same,"Plant response rating, Foxtail, Giant",giant foxtail; [18],70
same,"Foxtail, Giant plant response rating",giant foxtail; [11],10
same,"Foxtail, Giant plant response rating",giant foxtail; [19],10
same,Blackgrass plant response rating,blackgrass; [11],0
same,Blackgrass plant response rating,blackgrass; [19],0
same,Ducksalad plant response rating,ducksalad [4],90
same,Rice plant response rating (0 to 100 scale),"rice [5]; 125 g ai/ha, 0 = no effect, 100 = complete control",30
same,"Plant response rating, Rice","rice [5]; 500 g ai/ha, visual rating 0-100, 0 no effect, 100 complete control",80
same,Pigweed plant response rating (0 to 100 scale),pigweed; [17],20
same,"Plant response rating, Pigweed",pigweed; [18],60
same,Pigweed plant response rating,pigweed; [11],20
same,Pigweed plant response rating,pigweed; [19],20
same,Barnyardgrass plant response rating,barnyardgrass [6],60
same,Barnyardgrass plant response rating (0 to 100 scale),barnyardgrass [7]; [17],70
same,"Plant response rating, Barnyardgrass",barnyardgrass [7]; [18],90
same,Barnyardgrass plant response rating,barnyardgrass [7]; [11],10
same,Barnyardgrass plant response rating,barnyardgrass [7]; [19],10
same,Wheat plant response rating,wheat; [11],0
same,Wheat plant response rating,wheat; [19],0
same,Rice plant response rating,rice [8],30
same,Lambsquarters plant response rating (0 to 100 scale),lambsquarters; [17],20
same,"Plant response rating, Lambsquarters",lambsquarters; [18],40
same,Lambsquarters plant response rating,lambsquarters; [11],0
same,Lambsquarters plant response rating,lambsquarters; [19],0
same,"Crabgrass, Large plant response rating (0 to 100 scale)",large crabgrass; [17],70
same,"Plant response rating, Crabgrass, Large",large crabgrass; [18],100
same,"Crabgrass, Large plant response rating",large crabgrass; [11],10
same,"Crabgrass, Large plant response rating",large crabgrass; [19],10
same,Surinam Grass plant response rating (0 to 100 scale),Surinam grass; [17],30
same,"Plant response rating, Surinam Grass",Surinam grass; [18],70
same,Surinam Grass plant response rating,Surinam grass; [11],10
same,Surinam Grass plant response rating,Surinam grass; [19],10
same,"Sedge, Umbrella plant response rating",[9]; [13],20
same,"Sedge, Umbrella plant response rating",[9]; [20],65
same,"Sedge, Umbrella plant response rating",[9]; [21],80
same,"Plant response rating, Sedge, Umbrella",[9]; [16],85
same,"Sedge, Umbrella plant response rating",[10],80
